# Patent US4772475A, “Controlled-release multiple units pharmaceutical formulation” (Yamanouchi Pharmaceutical Co., Ltd., priority 1985, dated 1988)
# How the values were obtained:
# [1] = system: α; settings: cited from earlier work
# [2] = Solubility in water; format: physicochemical
smiles,measurement,setting,value
"CCOc1ccccc1OCCNC(C)Cc1ccc(OC)c(S(N)(=O)=O)c1.Cl (centres unmarked) [YM-12617, 5-{2-[2-(o-ethoxyphenoxy)ethylamino]propyl}-2-methoxybenzenesulfonamide hydrochloride]",α-blocking action,[1],shows an α-blocking action
same,solubility,[2],3000 to 5000 µg/mL
